In brackets after ≈: the same amount, converted by molar mass.
How the values were obtained:
Assay in all cases: In vitro MIC, agar dilution
Assay type in all cases: cell-based
[1] = tested on: S. aureus Col8A(Meth^S)(lac^-); settings: Staphylococcus aureus; S. aureus Col8A(Meth^S)(lac^-); read-out: minimum inhibitory concentration (MIC)
Method in brief: (§1)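 Two-fold dilutions (128 to ≤0.25 μg/mL, in duplicate) were poured into Mueller-Hinton agar. Log-phase broth cultures were spot-inoculated at about 10^4 cfu per spot and incubated 35-36°C for 16-20 hours; the MIC was the lowest concentration inhibiting growth. Col is a high-level PBP2a producer; Col 8A is its isogenic PBP2a-lacking partner.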

[2] = tested on: S. aureus Col(Meth^R)(lac^-); settings: Staphylococcus aureus, read-out: minimum inhibitory concentration (MIC)
Method in brief: as §1

[3] = tested on: S. haemolyticus 05(Meth^R); settings: Staphylococcus haemolyticus, read-out: minimum inhibitory concentration (MIC)
Method in brief: (§2)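 Growth inhibition was scored after 16-20 h at 35-36 °C on Mueller-Hinton agar carrying serial two-fold drug concentrations (128 to ≤0.25 μg/mL). Inocula of ~10^4 cfu per spot came from 4-6 h broth cultures.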

[4] = tested on: S. aureus ATCC 13709(Meth^S); settings: Staphylococcus aureus, ATCC13709, S. aureus ATCC 13709(Meth^S); read-out: minimum inhibitory concentration (MIC)
Method in brief: as §2

[5] = tested on: S. aureus Spain #356(Meth^R); settings: Staphylococcus aureus, read-out: minimum inhibitory concentration (MIC)
Method in brief: as §2

[6] = tested on: P. aeruginosa ATCC 27853; settings: Pseudomonas aeruginosa, ATCC27853, read-out: minimum inhibitory concentration (MIC)
Method in brief: as §2

[7] = tested on: S. aureus ATCC 29213; settings: Staphylococcus aureus, ATCC29213, read-out: minimum inhibitory concentration (MIC)
Method in brief: as §2

SMILES: C[C@@H](O)[C@H]1C(=O)N2C(C(=O)O)=C(SCCN=CN)C[C@H]12 [Imipenem, imipenem, reference compound]
- MIC [1]: ≤ 0.25 µg/mL
- MIC [2]: 32 µg/mL (≈ 107 µM)
- MIC [3]: 64 µg/mL (≈ 214 µM)
- MIC [4]: ≤ 0.25 µg/mL
- MIC [5]: 32 µg/mL (≈ 107 µM)
- MIC [6]: 1 µg/mL (≈ 3.34 µM)
- MIC [7]: ≤ 0.25 µg/mL

From US6087355A, “Cephalosporin antibiotics” (Microcide Pharmaceuticals, Inc., priority 1996, dated 2000)
